Patent publication US20150218099A1, “METHODS FOR CONTROL OF AQUATIC WEEDS USING HERBICIDAL 4-AMINO-3-CHLORO-6-(4-CHLORO-2-FLUORO-3-METHOXYPHENYL)PYRIDINE-2-CARBOXYLIC ACIDS” (Dow AgroSciences LLC, priority 2014, published 2015)

Columns and labels:
Hydrilla (HYLLI) [1] = assay: Control of hydrilla: aboveground dry weight after submersed exposure (12 L tanks); format: in vivo, Hydrilla verticillata (L.f.) Royle; settings: final aboveground dry weight, thirty-three days following submersed exposure, untreated 1.047
Text: Apical sections (12 to 15 centimeters (cm) in length) of hydrilla (HYLLI) were planted into small pots (13.5 cm length×3.75 cm diameter) containing topsoil amended with 14-14-14 slow release Osmocote® fertilizer (˜2.5 grams (g) Osmocote per kilogram (kg) soil). Approximately 5 to 7 cm of the apical section extended above the sediment at planting, and a sand cap was placed over the potting soil (˜2 cm deep). Plants were then transferred to 12 liter (L) acrylic tanks filled with well water. Tanks were maintained in a growth room with a 14:10 hour (h) photoperiod at 26° C. (±2° C.). Plants were allowed to grow for 17 days (d) before the treatments were initiated in triple replicate. Plants were treated with Compound 1 (halauxifen-methyl) at 0, 10, 100, 1000 parts per billion (ppb) with three replicates each. Treatments were only applied once. Plants were harvested at 33 d after initial treatment. At harvest, plants were rinsed free of algae and placed in paper sacks in a drying oven for 2 d at 70° C. temperature. Mean dry weights were determined and means separated using least significant differences (Table 1).

Hydrilla (HYLLI) [2] = assay: Control of hydrilla: aboveground dry weight after exposure to Compounds 1 and 2 (14 L cylinders); format: in vivo, Hydrilla verticillata (L.f.) Royle; settings: final aboveground dry weight, SC formulation, untreated 2.48
Protocol: Apical sections of hydrilla (HYLLI) were planted in potting soil amended with Osmocote® fertilizer in small pots (13.5 cm length×3.75 cm diameter). A 2.54 cm sand layer was placed over the top of the potting soil. The pots containing hydrilla were placed into 14 L acrylic cylinders filled with well water and allowed to establish slight growth prior to treatment. Cylinders were then treated with Compound 1 (halauxifen-methyl 96 grams acid equivalent per liter (g ae/L) Suspension Concentrate (SC)) or Compound 2 (benzyl 4-amino-3-chloro-5-fluoro-6-(4-chloro-2-fluoro-3-methoxyphenyl)pyridine-2-carboxylate (125 grams active ingredient per liter (g ai/L) SC)) at 50, 100 and 200 parts per billion (ppb). All treatments were replicated 4 times. […]

[3] = test system: Eurasian Watermilfoil (MYPSP); assay: Control of Eurasian watermilfoil: aboveground dry weight after exposure to Compound 1; format: in vivo, Myriophyllum spicatum L.; settings: thirty days following a 24-hour exposure, untreated 1.257
Text: (§1) Apical sections (12 to 15 cm in length) of Eurasian watermilfoil (MYPSP) and curlyleaf pondweed (PTMCR) were planted into small pots (13.5 cm length×3.75 cm diameter) containing topsoil amended with 14-14-14 slow release Osmocote® fertilizer (˜2.5 g Osmocote/kg soil). Approximately 5 to 7 cm of the apical section extended above the sediment at planting, and a sand cap was placed over the potting soil (˜2 cm deep). Plants were then transferred to 12 L acrylic tanks filled with well water. Plants were allowed to grow for 7 d before the treatment was initiated in triple replicate. […] At harvest, plants were rinsed free of algae, roots and shoots were separated and placed in paper sacks in a drying oven for 4 days at 70° C. temperature, and dry weights were measured and compared to an untreated control treatment (Table 3).

[4] = test system: Curlyleaf Pondweed (PTMCR); assay: Control of curlyleaf pondweed: aboveground dry weight after exposure to Compound 1; format: in vivo, Potamogeton crispus L.; settings: thirty days following a 24-hour exposure, untreated 0.087
Text: as §1

SMILES	Dry Weight (grams) of HYLLI (Hydrilla (HYLLI) [1]; 10 ppb) [b grams]	Dry Weight (grams) of HYLLI (Hydrilla (HYLLI) [1]; 100 ppb) [ab grams]	Dry Weight (grams) of HYLLI (Hydrilla (HYLLI) [1]; 1000 ppb) [b grams]	Dry Weight (grams) of HYLLI (Hydrilla (HYLLI) [2]; 50 ppb) [b grams]	Dry Weight (grams) of HYLLI (Hydrilla (HYLLI) [2]; 100 ppb)	Dry Weight (grams) of HYLLI (Hydrilla (HYLLI) [2]; 200 ppb) [b grams]	Dry Weight (grams) of MYPSP ([3]; 5 ppb) [b grams]	Dry Weight (grams) of MYPSP ([3]; 10 ppb) [b grams]	Dry Weight (grams) of MYPSP ([3]; 50 ppb) [b grams]	Dry Weight (grams) of MYPSP ([3]; 100 ppb) [b grams]	Dry Weight (grams) of PTMCR ([4]; 5 ppb) [a grams]	Dry Weight (grams) of PTMCR ([4]; 10 ppb) [ab grams]	Dry Weight (grams) of PTMCR ([4]; 50 ppb) [b grams]	Dry Weight (grams) of PTMCR ([4]; 100 ppb) [b grams]
COC(=O)c1nc(-c2ccc(Cl)c(OC)c2F)cc(N)c1Cl [Compound 1, methyl 4-amino-3-chloro-6-(4-chloro-2-fluoro-3-methoxyphenyl)pyridine-2-carboxylate]	0.02	0.003	0	0.02	0.64 ab grams	0	0.000	0.000	0.000	0.000	0.117	0.043	0.000	0.000
COc1c(Cl)ccc(-c2nc(C(=O)OCc3ccccc3)c(Cl)c(N)c2F)c1F [Compound 2, benzyl 4-amino-3-chloro-5-fluoro-6-(4-chloro-2-fluoro-3-methoxyphenyl)pyridine-2-carboxylate]				0	0 b grams	0								
